Results published in PMC5241706, “Biochemical and Structural Characterization of Selective Allosteric Inhibitors of the Plasmodium falciparum Drug Target, Prolyl-tRNA-synthetase” (ACS Infectious Diseases, 2016).
Each block holds one compound with its values, some of them ahead of it.

Legend:
PfProRS [1] = target: T1, PfProRS (Plasmodium falciparum, UniProt Q8I5R7); assay: biochemical; type: biochemical; details: read-out: Pf ProRS IC50
T1 construct: B2, AA7–746 (minus 6 amino acids, or 99% of the ORF); made in house; host or cells: E. coli BL21(DE3)R3 Rosetta Oxford

[2] = tested on: Plasmodium falciparum strain 3D7; assay: Plasmodium falciparum growth inhibition, SYBR green fluorescence; type: cell-based; details: 3D7, growth inhibition, read-out: Pf (3D7) EC50
PfProRS [3] = target: T1, PfProRS; assay: luciferase ATP depletion assay, HTS format; type: biochemical
HsProRS = target: T2, HsProRS (Homo sapiens, UniProt P07814); assay: luciferase ATP depletion assay, counter-screen; type: biochemical; details: for inhibition at 0.03 µM: at 0.03 μM (22.50 μM series); for inhibition at 2.5 µM: at 2.50 μM (22.50 μM series); for inhibition at 7.5 µM: at 7.50 μM; for inhibition at 22.5 µM: at 22.50 μM
T2 construct: made in house
T2 sequence (P07814 1007-1512 limits assumed): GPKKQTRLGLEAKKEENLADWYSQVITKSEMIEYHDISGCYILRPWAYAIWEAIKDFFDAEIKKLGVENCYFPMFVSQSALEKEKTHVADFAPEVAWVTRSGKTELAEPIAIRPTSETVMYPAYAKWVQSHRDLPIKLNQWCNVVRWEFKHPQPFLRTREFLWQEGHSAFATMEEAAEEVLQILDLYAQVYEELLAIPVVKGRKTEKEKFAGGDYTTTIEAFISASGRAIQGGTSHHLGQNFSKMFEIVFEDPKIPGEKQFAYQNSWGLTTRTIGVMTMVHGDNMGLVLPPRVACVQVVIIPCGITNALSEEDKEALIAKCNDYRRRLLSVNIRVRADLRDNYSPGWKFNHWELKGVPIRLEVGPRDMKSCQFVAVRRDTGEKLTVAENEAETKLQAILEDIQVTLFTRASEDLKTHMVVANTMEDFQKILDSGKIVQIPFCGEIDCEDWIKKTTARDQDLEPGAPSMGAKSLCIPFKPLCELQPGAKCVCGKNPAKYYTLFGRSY

[4] = read-out: Percentage inhibition Pf ProRS
[5] = read-out: Percentage inhibition Hs ProRS

T1 sequence (Q8I5R7 7-746): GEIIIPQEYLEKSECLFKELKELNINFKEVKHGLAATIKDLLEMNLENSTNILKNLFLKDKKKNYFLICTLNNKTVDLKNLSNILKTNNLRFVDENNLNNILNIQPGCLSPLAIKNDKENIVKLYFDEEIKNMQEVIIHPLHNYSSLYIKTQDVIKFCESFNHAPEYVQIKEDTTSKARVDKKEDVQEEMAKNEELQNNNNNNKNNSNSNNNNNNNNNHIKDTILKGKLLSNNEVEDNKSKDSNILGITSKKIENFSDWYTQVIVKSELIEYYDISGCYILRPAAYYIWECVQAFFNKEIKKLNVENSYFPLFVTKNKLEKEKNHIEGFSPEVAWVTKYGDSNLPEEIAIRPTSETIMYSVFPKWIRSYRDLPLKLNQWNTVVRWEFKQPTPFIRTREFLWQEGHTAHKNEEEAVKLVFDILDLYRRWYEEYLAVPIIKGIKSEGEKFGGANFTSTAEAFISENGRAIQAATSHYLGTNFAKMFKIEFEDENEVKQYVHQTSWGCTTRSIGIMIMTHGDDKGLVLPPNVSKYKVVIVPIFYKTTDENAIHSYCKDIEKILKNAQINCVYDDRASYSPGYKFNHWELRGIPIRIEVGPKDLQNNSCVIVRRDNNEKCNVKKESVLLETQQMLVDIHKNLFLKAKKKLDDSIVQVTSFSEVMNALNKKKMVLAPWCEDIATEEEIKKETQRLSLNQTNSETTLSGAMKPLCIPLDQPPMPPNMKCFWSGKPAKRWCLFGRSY

SMILES: Cn1nc(C(F)(F)F)c(-c2ccccc2CCO)c1NC(=O)Nc1ccc(F)cc1 [Compound 14]
IC50 (PfProRS [1]): > 50 µM

SMILES: COc1ccc(Cl)cc1C(=O)NCCc1ccc(S(=O)(=O)NC(=O)NC2CCCCC2)cc1 [glyburide]
IC50 (PfProRS [3]; PfProRS IC50, 75 nM ProRS, 60 μM proline, 6 μM ATP, 400 μg/mL yeast tRNA, 2 h 37 °C): 34 µM | inhibition at 0.73 µM (PfProRS [3]; [4]): 1.32% | inhibition at 1.46 µM (PfProRS [3]; [4]): 1.82% | inhibition at 2.93 µM (PfProRS [3]; [4]): 6.24% | inhibition at 5.86 µM (PfProRS [3]; [4]): 12.4% | inhibition at 11.72 µM (PfProRS [3]; [4]): 23.8% | inhibition at 23.44 µM (PfProRS [3]; [4]): 39.7% | inhibition at 46.88 µM (PfProRS [3]; [4]): 60% | inhibition at 93.75 µM (PfProRS [3]; [4]): 81.4% | inhibition at 187.5 µM (PfProRS [3]; [4]): 87% | inhibition at 375 µM (PfProRS [3]; [4]): 94% | inhibition at 750 µM (PfProRS [3]; [4]): 102% | IC50 (HsProRS): > 700 µM | inhibition at 0.73 µM (HsProRS; at 0.73 μM, read-out: Percentage inhibition Hs ProRS): 0.05% | inhibition at 1.46 µM (HsProRS; at 1.46 μM (750 μM series), read-out: Percentage inhibition Hs ProRS): 0.03% | inhibition at 2.93 µM (HsProRS; at 2.93 μM, read-out: Percentage inhibition Hs ProRS): -0.04% | inhibition at 5.86 µM (HsProRS; at 5.86 μM, read-out: Percentage inhibition Hs ProRS): 0.29% | inhibition at 11.72 µM (HsProRS; at 11.72 μM, read-out: Percentage inhibition Hs ProRS): 0.01% | inhibition at 23.44 µM (HsProRS; at 23.44 μM, read-out: Percentage inhibition Hs ProRS): 0.12% | inhibition at 46.88 µM (HsProRS; at 46.88 μM, read-out: Percentage inhibition Hs ProRS): 0.36% | inhibition at 93.75 µM (HsProRS; at 93.75 μM, read-out: Percentage inhibition Hs ProRS): 1.41% | inhibition at 187.5 µM (HsProRS; at 187.50 μM, read-out: Percentage inhibition Hs ProRS): 4.93% | inhibition at 375 µM (HsProRS; at 375 μM, read-out: Percentage inhibition Hs ProRS): 15.1% | inhibition at 750 µM (HsProRS; at 750 μM, read-out: Percentage inhibition Hs ProRS): 36.1% | inhibitory activity for HsProRS (HsProRS; up to the limit of solubility (>1 mM)): < 40%

SMILES: CCCCC(N)COc1cccc2c(-c3ccncc3)c(-c3cccc(NC(=O)Nc4ccccc4)c3)nn12 (stereo not drawn) [TCMDC-135537]
inhibition at 0.28 µM (PfProRS [3]; [4]): -1.18% | inhibition at 0.03 µM (PfProRS [3]; [4]): -1.72% | inhibition at 0.09 µM (PfProRS [3]; [4]): -1.11% | inhibition at 0.83 µM (PfProRS [3]; [4]): 1.73% | inhibition at 2.5 µM (PfProRS [3]; [4]): 11.7% | inhibition at 7.5 µM (PfProRS [3]; [4]): 39% | inhibition at 22.5 µM (PfProRS [3]; [4]): 84.8% | inhibition at 0.03 µM (HsProRS; [5]): -0.2% | inhibition at 0.09 µM (HsProRS; [5]): -0.49% | inhibition at 0.28 µM (HsProRS; [5]): 0.03% | inhibition at 0.83 µM (HsProRS; [5]): 0.8% | inhibition at 2.5 µM (HsProRS; [5]): 0% | inhibition at 7.5 µM (HsProRS; [5]): 0.28% | inhibition at 22.5 µM (HsProRS; [5]): 0.55%

SMILES: N[C@@H](COc1cccc2c(-c3ccncc3)c(-c3cccc(NC(=O)Nc4ccccc4)c3)nn12)c1ccccc1 [TCMDC-135512]
inhibition at 0.28 µM (PfProRS [3]; [4]): 2.37% | inhibition at 0.03 µM (PfProRS [3]; [4]): 1.13% | inhibition at 0.09 µM (PfProRS [3]; [4]): 2.63% | inhibition at 0.83 µM (PfProRS [3]; [4]): 3.62% | inhibition at 2.5 µM (PfProRS [3]; [4]): 11.8% | inhibition at 7.5 µM (PfProRS [3]; [4]): 40.4% | inhibition at 22.5 µM (PfProRS [3]; [4]): 56.8% | inhibition at 0.03 µM (HsProRS; [5]): -0.42% | inhibition at 0.09 µM (HsProRS; [5]): 0.03% | inhibition at 0.28 µM (HsProRS; [5]): -0.52% | inhibition at 0.83 µM (HsProRS; [5]): -0.24% | inhibition at 2.5 µM (HsProRS; [5]): -0.12% | inhibition at 7.5 µM (HsProRS; [5]): -0.42% | inhibition at 22.5 µM (HsProRS; [5]): -0.2%

Continued, in another order:

IC50 (PfProRS [1]): 9 µM
SMILES: Cn1nc(CCC#N)c(-c2ccc(F)cc2)c1NC(=O)Nc1ccc(F)cc1 [Compound 24]
EC50 [2]: 6 µM

IC50 (PfProRS [1]): 5 µM
SMILES: Cn1nc(C#N)c(-c2ccc(F)cc2)c1NC(=O)Nc1ccc(F)cc1 [Compound 22]
EC50 [2]: 0.6 µM

IC50 (PfProRS [1]): 13 µM
SMILES: Cn1nc(C(F)(F)F)c(-c2cccc(CCO)c2)c1NC(=O)Nc1ccc(F)cc1 [Compound 15]
EC50 [2]: 4 µM
